SMILES strings stand for the structures.

This is an account of results in US20220175889A1, “NEW DOSAGE REGIMEN FOR INHALED VASOACTIVE INTESTINAL POLYPEPTIDE” (priority 2020, published 2022).

Data set [1] deals with patients with COVID-19 pulmonary involvement.
Data set [2] has as its system histamine-induced bronchoconstriction. Conditions: single 375 μg inhaled; cited from earlier work.
Data set [3] is classed as physicochemical. As to conditions: M-neb mobile mesh nebulizer MN-300/9.

As for `CC[C@H](C)[C@H](NC(=O)[C@H](CO)NC(=O)[C@H](CC(N)=O)NC(=O)[C@H](CC(C)C)NC(=O)[C@H](Cc1ccc(O)cc1)NC(=O)[C@H](CCCCN)NC(=O)[C@H](CCCCN)NC(=O)[C@@H](NC(=O)[C@H](C)NC(=O)[C@H](CCSC)NC(=O)[C@H](CCC(N)=O)NC(=O)[C@H](CCCCN)NC(=O)[C@H](CCCNC(=N)N)NC(=O)[C@H](CC(C)C)NC(=O)[C@H](CCCNC(=N)N)NC(=O)[C@@H](NC(=O)[C@H](Cc1ccc(O)cc1)NC(=O)[C@H](CC(N)=O)NC(=O)[C@H](CC(=O)O)NC(=O)[C@@H](NC(=O)[C@H](Cc1ccccc1)NC(=O)[C@@H](NC(=O)[C@H](C)NC(=O)[C@H](CC(=O)O)NC(=O)[C@H](CO)NC(=O)[C@@H](N)Cc1c[nH]cn1)C(C)C)[C@@H](C)O)[C@@H](C)O)C(C)C)C(=O)N[C@@H](CC(C)C)C(=O)N[C@@H](CC(N)=O)C(N)=O` [Aviptadil], in data set [1] (human, in vivo), the Tolerability entry is on record as “well tolerated”. The “Distribution of AEs (%)” value in data set [1] (share of the 47 adverse events observed in Treatment Group, 16 patients treatment, 13 placebo) is 40.43%. Besides, in data set [1] (treatment group, Age >= 60), the “Entering Intensive Care (%)” value stood at 25%. In data set [2], the “Protection against histamine-induced bronchoconstriction” value was “the activity could not be shown” and the Side effects entry is listed as “no side effects were reported”. Besides, in data set [3], the “Mass Median Aerodynamic Diameter” value came out at 4±0.16 μm.
